Experimental findings from PubChem BioAssay AID256 (DTP/NCI, 2004) are described below.

The structures appear in SMILES notation. Values joined by “and” are separate entries in the source; they are usually repeats but may differ in a detail not shown here. Identical values can stand only once. Toxic doses and inconclusive results are not listed.

The subject of this assay is CD2F1 mice, L1210 leukemia ip, survival T/C. The assay is described as follows: NCI In Vivo Anticancer Drug Screen. Data for tumor model L1210 Leukemia (intraperitoneal) in CD2F1 (CDF1) mice. Conditions: higher = longer survival. In a few lines:
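Transplantable tumor in mice; compound-treated vs vehicle-treated groups. Read-out = treated/control ratio of the measured endpoint.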

[1] abbreviates: endpoint: mean survival time, dose: 100.0 mg/kg/injection, schedule: Q04DX003 (ip), vehicle: saline with Tween-80.
The mark [2] stands for this setting: endpoint: mean survival time, dose: 200.0 mg/kg/injection, schedule: Q04DX003 (ip), vehicle: saline with Tween-80.
Setting [3] is: endpoint: mean survival time, dose: 400.0 mg/kg/injection, schedule: Q04DX003 (ip), vehicle: saline with Tween-80.
[4] abbreviates: endpoint: mean survival time, dose: 50.0 mg/kg/injection, schedule: Q01DX009 (ip), vehicle: saline with Tween-80.
Setting [5] is: endpoint: mean survival time, dose: 100.0 mg/kg/injection, schedule: Q01DX009 (ip), vehicle: saline with Tween-80.
[6] abbreviates: endpoint: mean survival time, dose: 100.0 mg/kg/injection, schedule: Q01DX001 (ip), vehicle: saline with Tween-80.
The mark [7] stands for this setting: endpoint: mean survival time, dose: 200.0 mg/kg/injection, schedule: Q01DX001 (ip), vehicle: saline with Tween-80.
The mark [8] stands for this setting: endpoint: mean survival time, dose: 200.0 mg/kg/injection, schedule: Q01DX009 (ip), vehicle: saline with Tween-80.
Where [9] appears, read: endpoint: mean survival time, dose: 25.0 mg/kg/injection, schedule: Q04DX002 (ip), vehicle: saline.
[10] abbreviates: endpoint: mean survival time, dose: 50.0 mg/kg/injection, schedule: Q04DX002 (ip), vehicle: saline.

On to `[Br][Pt+2][Br].[NH-]c1ccc(F)cc1.[NH-]c1ccc(F)cc1`, for which the T/C is 101 % of control (endpoint: mean survival time, dose: 3.13 mg/kg/injection, schedule: Q04DX003 (ip), vehicle: distilled water + Tween-80); 104 % of control (endpoint: mean survival time, dose: 6.25 mg/kg/injection, schedule: Q04DX003 (ip), vehicle: distilled water + Tween-80); 104 % of control (endpoint: mean survival time, dose: 12.5 mg/kg/injection, schedule: Q04DX003 (ip), vehicle: distilled water + Tween-80); 108 % of control (endpoint: mean survival time, dose: 25.0 mg/kg/injection, schedule: Q04DX003 (ip), vehicle: distilled water + Tween-80); 110 % of control (endpoint: mean survival time, dose: 50.0 mg/kg/injection, schedule: Q04DX003 (ip), vehicle: distilled water + Tween-80); 113 % of control (endpoint: mean survival time, dose: 100.0 mg/kg/injection, schedule: Q04DX003 (ip), vehicle: distilled water + Tween-80).
On to `NC(=S)CNC(=O)c1ccccc1`, for which the T/C was 100 % of control and 101 % of control under setting [1]; 101 % of control and 106 % of control under setting [2]; 99 % of control and 111 % of control under setting [3].
For the compound `COC1=C2C[C@@H](C)C[C@@H](OC)[C@@H](O)[C@H](C)/C=C(\C)[C@@H](OC(N)=O)[C@H](OC)/C=C\C=C(/C)C(=O)NC(=CC1=O)C2=O`, the T/C reads like this: (endpoint: mean survival time, dose: 0.12 mg/kg/injection, schedule: Q01DX009 (ip), vehicle: saline with Tween-80) 102 % of control; (endpoint: mean survival time, dose: 0.25 mg/kg/injection, schedule: Q01DX009 (ip), vehicle: saline with Tween-80) 102 % of control; (endpoint: mean survival time, dose: 0.5 mg/kg/injection, schedule: Q01DX009 (ip), vehicle: saline with Tween-80) 98 % of control; (endpoint: mean survival time, dose: 1.0 mg/kg/injection, schedule: Q01DX009 (ip), vehicle: saline with Tween-80) 101 % of control; (endpoint: mean survival time, dose: 2.0 mg/kg/injection, schedule: Q01DX009 (ip), vehicle: saline with Tween-80) 112 % of control; (endpoint: mean survival time, dose: 4.0 mg/kg/injection, schedule: Q01DX009 (ip), vehicle: saline with Tween-80) 111 % of control. Besides, the T/C reads like this: (endpoint: mean survival time, dose: 5.0 mg/kg/injection, schedule: Q01DX001 (ip), vehicle: saline) 104 % of control; (endpoint: mean survival time, dose: 10.0 mg/kg/injection, schedule: Q01DX001 (ip), vehicle: saline) 107 % of control.
In the case of `C1=CC2C=CC12` (stereo not drawn), the T/C under setting [4] was 105 % of control, the T/C under setting [5] was 108 % of control, the T/C under setting [1] is 95 % of control and the T/C under setting [2] is 104 % of control.
For the compound `CC(C)(C)OC1C2C=CC1C1C2C2(Cl)C(Cl)=C(Cl)C1(Cl)C21OCCO1` (stereo not drawn), the T/C (endpoint: mean survival time, dose: 41.25 mg/kg/injection, schedule: Q04DX002 (ip), vehicle: Klucel (hydroxypropylcellulose) (HPC)) was 98 % of control; the T/C (endpoint: mean survival time, dose: 50.0 mg/kg/injection, schedule: Q04DX002 (ip), vehicle: Klucel (hydroxypropylcellulose) (HPC)) was 97 % of control; the T/C (endpoint: mean survival time, dose: 82.5 mg/kg/injection, schedule: Q04DX002 (ip), vehicle: Klucel (hydroxypropylcellulose) (HPC)) is 100 % of control; the T/C (endpoint: mean survival time, dose: 100.0 mg/kg/injection, schedule: Q04DX002 (ip), vehicle: Klucel (hydroxypropylcellulose) (HPC)) was 98 % of control; the T/C (endpoint: mean survival time, dose: 165.0 mg/kg/injection, schedule: Q04DX002 (ip), vehicle: Klucel (hydroxypropylcellulose) (HPC)) is 98 % of control; the T/C (endpoint: mean survival time, dose: 200.0 mg/kg/injection, schedule: Q04DX002 (ip), vehicle: Klucel (hydroxypropylcellulose) (HPC)) was 98 % of control. The T/C is 98 % of control (endpoint: mean survival time, dose: 330.0 mg/kg/injection, schedule: Q04DX002 (ip), vehicle: Klucel (hydroxypropylcellulose) (HPC)) and 97 % of control (endpoint: mean survival time, dose: 400.0 mg/kg/injection, schedule: Q04DX002 (ip), vehicle: Klucel (hydroxypropylcellulose) (HPC)).
For the compound `Cc1ccccc1N=Nc1ccc(O)cc1`, the T/C reads like this: under setting [4], 105 % of control; under setting [6], 103 % of control; under setting [5], 100 % of control; under setting [7], 92 % of control; under setting [8], 103 % of control.
With `NNC(=O)c1cccc(N)c1`, the T/C was 98 % of control (endpoint: mean survival time, dose: 25.0 mg/kg/injection, schedule: Q01DX009 (ip), vehicle: saline sonified); 102 % of control (endpoint: mean survival time, dose: 50.0 mg/kg/injection, schedule: Q01DX009 (ip), vehicle: saline sonified); 102 % of control (endpoint: mean survival time, dose: 100.0 mg/kg/injection, schedule: Q01DX009 (ip), vehicle: saline sonified); 104 % of control under setting [1].
For the compound `CCCCCCCCCCCCC[n+]1ccc(C#N)cc1`, the T/C reads like this: (endpoint: mean survival time, dose: 7.5 mg/kg/injection, schedule: Q01DX001 (ip), vehicle: saline) 102 % of control; (endpoint: mean survival time, dose: 7.5 mg/kg/injection, schedule: Q01DX009 (ip), vehicle: saline) 107 % of control; (endpoint: mean survival time, dose: 15.0 mg/kg/injection, schedule: Q01DX001 (ip), vehicle: saline) 94 % of control; (endpoint: mean survival time, dose: 15.0 mg/kg/injection, schedule: Q01DX009 (ip), vehicle: saline) 101 % of control; (endpoint: mean survival time, dose: 30.0 mg/kg/injection, schedule: Q01DX001 (ip), vehicle: saline) 97 % of control.
With `C/C=C/C=C\C=C/C(O)CC(OP(=O)(O)O)C(C)(O)/C=C/C1CC=CC(=O)O1` (stereo not drawn), the T/C runs as follows: (endpoint: median survival time, dose: 0.38 mg/kg/injection, schedule: Q01DX009 (ip), vehicle: water) 116 % of control; (endpoint: median survival time, dose: 1.5 mg/kg/injection, schedule: Q01DX009 (ip), vehicle: water) 180 % of control; (endpoint: median survival time, dose: 3.0 mg/kg/injection, schedule: Q01DX009 (ip), vehicle: water) 153 % of control and 168 % of control; (endpoint: median survival time, dose: 6.0 mg/kg/injection, schedule: Q01DX009 (ip), vehicle: water) 120 % of control and 226 % of control.
On to `CC(=O)N1CCC(Cc2ccccc2)CC1`, for which the T/C (endpoint: mean survival time, dose: 100.0 mg/kg/injection, schedule: Q04DX003 (ip), vehicle: saline) is 97 % of control; the T/C (endpoint: mean survival time, dose: 200.0 mg/kg/injection, schedule: Q04DX003 (ip), vehicle: saline) is 94 % of control; the T/C (endpoint: mean survival time, dose: 400.0 mg/kg/injection, schedule: Q04DX003 (ip), vehicle: saline) was 95 % of control.
Take `COC(=O)C(CCCCN)NS(=O)(=O)c1ccccc1` (stereo not drawn): the T/C runs as follows: under setting [5], 96 % of control; under setting [1], 109 % of control; under setting [8], 100 % of control; under setting [2], 91 % of control; (endpoint: mean survival time, dose: 400.0 mg/kg/injection, schedule: Q01DX009 (ip), vehicle: saline with Tween-80) 96 % of control; under setting [3], 103 % of control.
Take `O=S(=O)(O)N=Nc1ccc(OCc2ccccc2)cc1`: the T/C by setting is: (endpoint: mean survival time, dose: 100.0 mg/kg/injection, schedule: Q01DX001 (ip), vehicle: saline) 100 % of control; (endpoint: mean survival time, dose: 200.0 mg/kg/injection, schedule: Q01DX001 (ip), vehicle: saline) 100 % of control; (endpoint: mean survival time, dose: 400.0 mg/kg/injection, schedule: Q01DX001 (ip), vehicle: saline) 97 % of control.
Turning to `COc1ccc(C=NCCO)cc1OC`, the T/C is, setting by setting: (endpoint: median survival time, dose: 50.0 mg/kg/injection, schedule: Q04DX002 (ip), vehicle: saline with Tween-80) 111 % of control; (endpoint: median survival time, dose: 100.0 mg/kg/injection, schedule: Q04DX002 (ip), vehicle: saline with Tween-80) 100 % of control; (endpoint: median survival time, dose: 200.0 mg/kg/injection, schedule: Q04DX002 (ip), vehicle: saline with Tween-80) 100 % of control; (endpoint: median survival time, dose: 400.0 mg/kg/injection, schedule: Q04DX002 (ip), vehicle: saline with Tween-80) 100 % of control.
`CN=C(N)CS`: the T/C by setting is: under setting [9], 101 % of control; under setting [10], 101 % of control; (endpoint: mean survival time, dose: 100.0 mg/kg/injection, schedule: Q04DX002 (ip), vehicle: saline) 101 % of control.
With `O=[N+]([O-])c1ccc(C(O)C(O)c2ccccc2)cc1` (stereo not drawn), the T/C under setting [6] is 96 % of control; the T/C under setting [7] is 92 % of control; the T/C (endpoint: mean survival time, dose: 400.0 mg/kg/injection, schedule: Q01DX001 (ip), vehicle: saline with Tween-80) was 95 % of control.
Turning to `CC1(C)C2CCC(I)(C2)C1O` (stereo not drawn), the T/C (endpoint: mean survival time, dose: 50.0 mg/kg/injection, schedule: Q04DX003 (ip), vehicle: saline with Tween-80) is 101 % of control; the T/C under setting [1] is 101 % of control; the T/C under setting [2] is 101 % of control.
On to `CCN(CC)CCCNc1nccc2c(C)c3[nH]c4ccncc4c3cc12`, for which the T/C runs as follows: (endpoint: median survival time, dose: 5.0 mg/kg/injection, schedule: Q01DX001 (ip), vehicle: other) 124 % of control; (endpoint: median survival time, dose: 10.0 mg/kg/injection, schedule: Q01DX001 (ip), vehicle: other) 157 % of control; (endpoint: median survival time, dose: 20.0 mg/kg/injection, schedule: Q01DX001 (ip), vehicle: other) 175 % of control.
On to `CCCCCCCCCCCCCCCCNCC(O)CN` (stereo not drawn), for which the T/C reads like this: (endpoint: mean survival time, dose: 12.5 mg/kg/injection, schedule: Q04DX002 (ip), vehicle: saline) 95 % of control; under setting [9], 106 % of control; under setting [10], 103 % of control.
